Measured values taken from US20170095440A1, “METHOD OF TREATING CANINE PANCREATITIS” (CK9, LLC, priority 2014, published 2017).
Where “and” joins values, the source holds several entries; their conditions need not be identical. Equal entries are not always repeated. Entries after “also recorded” stand apart in the source; their conditions may differ.

How the values were obtained:
[1] = system: dogs with suspected chronic pancreatitis; assay: Quality of life reported by owners and referring vets, clinical trial; format: in vivo, dog
Procedure: Treatment effects on overall health status, quality of life, and clinical signs were also evaluated with serum biochemistry profiles, complete blood counts, and owner questionnaires.
Patients were treated at home and their overall health was monitored by their owners and the referring physician.
Owners of enrolled dogs received instructions to refrain from changing the dog's diet during the trial period and to report on the overall health status and quality of life of their pet.

Beagle dogs = assay: Rising-dose tolerance study, oral capsule; format: in vivo, dog
Procedure: The following parameters and end points were evaluated in the rising-dose phase of this study: clinical signs, body weights, body weight changes, food consumption, electrocardiography, clinical pathology parameters (hematology, clinical chemistry, and urinalysis), and gross necropsy findings.
3 male and 3 female Beagle dogs were received from Marshall BioResources, North Rose, N.Y. The animals were examined and weighed on the day following receipt. The rising-dose phase animals were 6 months old and weighed 7.5 kg and 8.3 kg at initiation of dosing. The multiple-dose phase animals were 7 months old and weighed 7.4 kg and 7.6 kg at initiation of dosing.
For the rising-dose phase, the test article was administered to the appropriate animals by oral capsule. At least a 3-day washout period was maintained before proceeding to the next dose level; therefore, dosing occurred on Days 1, 5, 9, 15, and 19. The dose amount for each animal was based on the most recent body weight measurement. The first day of dosing was designated as Study Day 1.
The animals were removed from the cage and a detailed clinical observation was performed daily, beginning during Week −1, 1 to 3 hours postdose on days of dosing. Each animal was weighed on the day of randomization and Days 1, 5, 9, 15, 19, and 22. Food consumption was quantitatively measured for each animal daily, starting Week −1, throughout the dosing period, except for on the day of scheduled euthanasia. Electrocardiogram (ECG) measurements were obtained from all animals using leads I, II, III, aVR, aVL, and aVF and a chart speed of 50 mm/second. The ECG measurements were obtained once pretreatment and at approximately 3 hours postdose on Days 1, 5, 9, 15, and 19. Only lead II was evaluated by a board-certified veterinary cardiologist.
Blood was collected by venipuncture of the jugular vein. Urine was collected overnight by cage pan drainage. After collection, samples were transferred to the clinical pathology laboratory for processing. The animals were fasted overnight prior to scheduled clinical pathology sample collections, but had access to water ad libitum. Samples were collected according to Table 5.
Rising-dose phase animals surviving until scheduled euthanasia were weighed, samples for evaluation of clinical pathology parameters were collected as specified above, and the animals were euthanized by sodium pentobarbital injection, followed by exsanguination. Animals were fasted overnight before their scheduled necropsy.
(§1) Rising-dose phase animals were subjected to a complete necropsy examination, which included evaluation of the carcass and musculoskeletal system; all external surfaces and orifices; cranial cavity and external surfaces of the brain; and thoracic, abdominal, and pelvic cavities with their associated organs and tissues. Necropsy examinations were conducted under the supervision of a board-certified veterinary pathologist.

Han Wistar rats = assay: Multiple-dose tolerance study, oral gavage 3 times a day for 7 days; format: in vivo, rat
Procedure: The following parameters and end points were evaluated in the multiple-dose phase of this study: clinical signs, body weights, body weight changes, food consumption, and gross necropsy findings.
A total of 18 male and 24 female Han Wistar rats were received from Charles River Laboratories, Raleigh, N.C. The animals were examined and weighed on the day following receipt. The rising-dose phase animals were 8 weeks old and weighed between 176 g and 255 g at initiation of dosing and the multiple-dose phase animals were 8 weeks old and weighed between 172 g and 259 g at initiation of dosing.
For the multiple-dose study, the test and control articles were administered to the appropriate animals 3 times a day by oral gavage from Days 1 to 7. The doses were administered 8 hours±30 minutes apart. The dose volume for each animal was based on the most recent body weight measurement. The doses were given using a syringe with attached gavage cannula. The first day of dosing was designated as Study Day 1.
Cage side observations were performed once daily, beginning during Week −1 and throughout the dosing phase. During the dosing period, these observations were performed 1 to 3 hours post the first daily dose.
The animals were removed from the cage and a detailed clinical observation was performed on the day of randomization and Days 1 and 8. Each animal was weighed on the day of randomization (Day −4) and Days 1 to 8. Food consumption was quantitatively measured for each animal weekly, starting Day −4, throughout the dosing phase.
as §1, with “Multiple-dose study” for “Rising-dose phase”
For the multiple-dose study, numerical data collected on scheduled occasions for the listed variables were analyzed as indicated according to sex and occasion. Descriptive statistics number, mean and standard deviation (or % CV or SE when deemed appropriate) were reported whenever possible. Inferential statistics were performed according to the matrix below when possible, but excluded semi-quantitative data, and any group with less than 3 observations.
Levene's test was used to assess the homogeneity of group variances parametric assumption at the 5% significance level. Datasets with at least 3 groups were compared using an overall one-way ANOVA F-test or Kruskal-Wallis test (if parametric assumptions were not met) at the 5% significance level. The above pairwise comparisons were conducted using a two-sided Dunnett's or Dunn's test, respectively, if the overall test was significant. Datasets with 2 groups were compared using a two-sided t-test or Wilcoxon Rank-Sum test, respectively. All significant pairwise comparisons were reported at the 0.1%, 1%, and 5% significance levels.

trypsin = trypsin (Homo sapiens, UniProt P07477); details: cited from earlier work
dogs = details: 10, 30 and 100 mg/kg/day, oral capsules, 30-day study; cited from earlier work
[2] = following each dose, 10-250 mg/kg, methanesulfonate

CN(C)C(=O)COC(=O)Cc1ccc(OC(=O)c2ccc(NC(=N)N)cc2)cc1 [Camostat Mesilate, N,N-dimethylcarbamoylmethyl-4-(4-guanidinobenzoyloxy)phenylacetate methanesulfonate]
Quality of life, reports from referring vets and pet owners ([1]; 24 mg/kg q d orally): subjective improvement of quality of life in some patients
Quality of life, overall consensus from pet owners ([1]; all treated dogs): had improved
Clinical observations (Beagle dogs; 10 mg/kg single oral dose): soft feces were noted in the female the day after dosing
Clinical observations (Beagle dogs; 30 mg/kg single oral dose): no clinical observations noted
Clinical observations (Beagle dogs; 100 mg/kg single oral dose): clear ocular discharge was observed in the female
Clinical observations (Beagle dogs; 200 mg/kg single oral dose, methanesulfonate): slight salivation and soft feces/feces with mucoid material were observed in the male and female
Clinical observations (Beagle dogs; 250 mg/kg single oral dose, methanesulfonate): severe salivation was observed following dosing in the male and female; also recorded: salivation and soft feces/feces with mucoid material
Gross necropsy findings (Beagle dogs; Day 22): no gross necropsy findings
Body weight (Beagle dogs; between doses, 10-250 mg/kg): no notable changes
Food consumption (Beagle dogs; between doses, 10-250 mg/kg): no notable changes
Clinical chemistry, potential test article-related changes (Beagle dogs; female, following the 200 and 250 mg/kg doses): increased creatine kinase
Hematology parameters (Beagle dogs; [2]): no toxicologically meaningful changes; also recorded: no notable changes
Urinalysis parameters (Beagle dogs; [2]): no toxicologically meaningful changes; also recorded: no notable changes
Clinical chemistry, potential test article-related changes (Beagle dogs; male, following the 250 mg/kg dose): increased creatinine, total bilirubin, and urea nitrogen
Survival (Beagle dogs; single oral doses 10, 30, 100, 200, 250 mg/kg, 1 male and 1 female, methanesulfonate): No rising-dose phase animals died; also recorded: All animals survived to scheduled euthanasia
Clinical observations (Han Wistar rats; 1300 mg/kg/day, Day 8, methanesulfonate): Most of the 1300 mg/kg/day animals were noted to be thin and 3/3 males and 2/3 females were noted to be thin
Necropsy observation not considered test article related (Han Wistar rats; 1300 mg/kg/day, male): small seminal vesicle was noted in one 1300 mg/kg/day male
Overall conclusion of multiple dosing (Han Wistar rats; 3 times per day for 7 days): body weight loss and decreased food consumption
Gross necropsy findings (Han Wistar rats; 100, 550, 1300 mg/kg/day): no toxicologically meaningful gross necropsy findings
Survival (Han Wistar rats; 100, 550, 1300 mg/kg/day, 3 times a day, 7 days, euthanasia Day 8, methanesulfonate): All animals survived to scheduled euthanasia; also recorded: No animals died
Mean body weights compared to controls (Han Wistar rats; 100 or 550 mg/kg/day): no statistically significant or toxicologically meaningful differences
Clinical observations (Han Wistar rats; 100 or 550 mg/kg/day, 7 days): no clinical observations noted
Mean body weight, deviation from controls (Han Wistar rats; 100 or 550 mg/kg/day, Day 8): ≤ 4.4%
Mean food consumption, statistical comparison with controls (Han Wistar rats; Days 1 to 7, all dose groups): no statistically significant differences
Mean body weight lower than controls (Han Wistar rats; females, Day 8, 1300 mg/kg/day, statistically decreased Days 5 to 8): 19%
Body weight change Days 1 to 8 (Han Wistar rats; females, 1300 mg/kg/day): −13%
Mean body weight lower than controls (Han Wistar rats; males, Day 8, 1300 mg/kg/day, statistically decreased Days 4 to 8): 25%
Body weight change Days 1 to 8 (Han Wistar rats; males, 1300 mg/kg/day): −15%
High-dose level chosen from the tolerance study (Han Wistar rats; rats, oral, 3 times per day): 1300 mg/kg/day
Anti-trypsin activity (trypsin): pronounced anti-trypsin
Toxicity findings (dogs): no significant toxicities
